From a melting point compilation (Tetko et al.; mined from patent text by program, amines drawn as free bases though some values may be those of a salt) come the findings set out here.

The term melting point denotes the temperature of the solid-liquid transition.

Some results are limits rather than exact numbers.

The molecule `CCOC(=O)CC(C)c1ccc(C2COc3c(C)c(C)c(NC(=O)CC(C)(C)C)c(C)c32)cc1` (stereo not drawn) came in with a melting point of 100 to 101 °C.

Turning to `CCCCc1cc(N)n2nccc2n1`, the melting point was in the range of 124 to 126 °C.

In turn, `CCC(C(=O)O)(c1ccc(OCc2ccc3ccccc3n2)cc1)c1ccc(OCc2ccc3ccccc3n2)cc1` registered a melting point of 83 to 92 °C.

Regarding `CCOC(=O)Cn1c2c(c3c(Cl)c(Cl)ccc31)CCN(C(=O)OC(C)(C)C)CC2`, the melting point is 136 to 138 °C.

Molecule `CN(C)CN(C(=O)c1ccc(Cl)cc1Cl)c1ccc(C(=O)N2Cc3cccn3Cc3ccccc32)cc1` registered a melting point of 126 to 129 °C.

For `NCCCNC(=O)Cn1ncc(-c2ccccc2)c1-c1ccccc1`, the melting point lay in the range of 119 to 120 °C.

`Cc1nnc2n1-c1sc(CCc3ccc(OC(C)C)cc3)cc1C(c1ccccc1Cl)=NC2` registered a melting point of 121 to 124 °C.

With `O=C(N1CCC(c2ccncc2)CC1)N1CCN(S(=O)(=O)c2ccc(Cl)cc2)CC1`, the melting point is 234 to 235 °C.

For `CN1CC(c2ccc(Nc3cc(-c4cccc(N5Cc6cc(C(C)(C)C)ccc6C5=O)c4CO)cn(C)c3=O)nc2)C1`, the melting point fell in the range of 201 to 202 °C.

The molecule `CCOCc1nc2c(N)nc3ccccc3c2n1Cc1cc(-c2ccc(F)cc2)no1` had a melting point of 203 to 204 °C.

With `Cc1c(C)n(CCF)c2c(OCc3ccccc3)nncc12`, the melting point lay within 106 to 107 °C.

In the case of `c1ccc(Cn2nc(-c3ccncc3)nc2-c2ccncc2)cc1`, the melting point was in the range of 136 to 138 °C.

On to `CC(=O)c1ccc2c(c1)C(C)(C)C(O)CC2(C)C` (stereo not drawn), for which the melting point was 121 to 124 °C.

Molecule `Cc1cccc(N2CCN(c3ccc(=O)[nH]n3)CC2)c1` had a melting point of 210 °C.

Take `C[C@H](NC(=O)c1ccc([N+](=O)[O-])cc1F)C(=O)O`: the melting point fell in the range of 136 to 138 °C.

`O=C1OC(c2ccccc2)=NC1=NNc1ccccc1` showed a melting point of 200 to 203 °C.

As to `CCC(=CC(CNC(=O)c1ccc(N)nc1)=NO)C(C)[N+](=O)[O-]` (stereo not drawn), the melting point is 157 to 161 °C.

`CCOP(=O)(Cc1ccc(NC(=O)c2sc(SC)c3c2CCc2sc(CC)nc2-3)cc1)OCC` yielded a melting point of 179 to 180 °C.

The molecule `CCOC(=O)c1ccc(OCCCCCCc2cccc(O)c2O)cc1O` returned a melting point of 63 to 68 °C.

With `CCOC(=O)c1ccc(OCC2CCCCC2)c([N+](=O)[O-])c1`, the melting point is 79 to 80 °C.

Consider `O=c1c(-c2cccc(C(F)(F)F)c2)c[nH]n1-c1ccc(F)cc1`, for which the melting point lay within 171 to 173 °C.

As for `O=C(Nc1ccc(C(=O)N2Cc3ccccc3Cc3ccccc32)cc1)c1cccnc1`, the melting point lay within 217 to 220 °C.

The molecule `CCCN(CCC)CC(=O)OC1CC2(C)C(C(=O)CO)CCC2C2CCC3CC(O)CCC3(C)C12` (stereo not drawn) showed a melting point of 98 to 102 °C.

On to `O=c1c2cnc(-c3ccccc3)nc2sn1CCN1CCOCC1`, for which the melting point was 163 to 165 °C.

For `COc1cc(Cl)c2nc(NN)nc(N)c2c1OC`, the melting point fell in the range of 168 to 169 °C.

As for `O=C(O)c1ccc(-c2ccn(-c3ccc(C(F)(F)F)cc3)c2)cc1`, the melting point is 315 to 317 °C.

As for `O=[N+]([O-])c1ccc2c(c1)C(O)c1cccnc1CC2` (stereo not drawn), the melting point fell in the range of 222 to 223 °C.

In turn, `O=C(c1ccc(OCCCl)cc1)N1CCOCC1` gave a melting point of 102 to 104 °C.

Take `CCOC(=O)c1sc2ccc(Br)cc2c1C`: the melting point fell in the range of 87 to 88 °C.

As to `CC(=O)CC(=O)NC1CCCCCCC1`, the melting point was found to be 44 °C.

Regarding `O=[N+]([O-])c1cccc(OCc2ccc3ccccc3n2)c1`, the melting point worked out at 109 °C.

For `Cc1cn(-c2cccc(C3=Nc4ccc(C#Cc5ccc(F)cc5)cc4NC(=O)C3)c2)cn1`, the melting point was 210 °C.

`Cc1ccc(C(C)C)c2oc(SCCN3CCN(CC(=O)Nc4c(C(C)C)cccc4C(C)C)CC3)nc12` returned a melting point of 133 to 134 °C.

In the case of `NC(=O)c1ccc(S(=O)(=O)NCCC2CCC(CC(=O)O)CC2)cc1` (stereo not drawn), the melting point lay in the range of 172 to 174 °C.

The molecule `CCn1c(Cc2ccc(C)cc2)nnc1[C@@H](C)NS(=O)(=O)c1ccc(Cl)c(Cl)c1` came in with a melting point of 189 to 191 °C.

As to `Cc1ccc2c(c1)C(=O)N(C)Cc1c(C(N)=NO)ncn1-2`, the melting point is 227 to 229 °C.

Molecule `CC1CC(=O)c2cc(Cl)ccc2O1` (stereo not drawn) registered a melting point of 100 to 102 °C.

Turning to `N#Cc1ccc(C(=O)c2cc(C(F)(F)F)ccc2S)cc1`, the melting point was determined as 210 °C.

The molecule `CC(C)(C)c1cc(N(C(=O)Cc2ccccc2C(=O)O)c2ccccc2)cc(C(C)(C)C)c1O` gave a melting point of 170 to 175 °C.

Take `Cn1ncc2ccccc2c1=O`: the melting point was 111 to 112 °C.

`COc1ccc(-c2ccc3ccc(NC(=O)c4ccc(C(F)(F)F)cc4)nc3n2)cc1` displayed a melting point of 148 °C.

For the molecule `CC(C)c1c(Oc2ccccc2)n(COCc2ccccc2)c(=O)[nH]c1=O`, the melting point was found to be 118 °C.

`CC#CC(C)(C)NC(=O)C(COC)Oc1ccc2ccncc2c1` (stereo not drawn) registered a melting point of 155 to 156 °C.

As to `CC(=O)Nc1ccc2c(c1)C(c1cccn1-c1cc(Cl)cc(Cl)c1)C(=O)N2` (stereo not drawn), the melting point stood at 267 °C.

As for `CCn1cc(CC(=O)O)c(OCCCn2cc(C(=O)NCc3ccc(Cl)cc3Cl)c(OC(C)C)n2)n1`, the melting point was 138 to 139 °C.

Consider `CCNC(=O)Nc1nc2cc(-c3cccnc3)cc(C(=O)NC)n2n1`, for which the melting point was > 300 °C.

In turn, `Cc1cc(Br)c(Cl)cc1Cl` had a melting point of 82.5 to 84 °C.

For the molecule `Cc1ccc(N)c(C)c1CO`, the melting point stood at 85 °C.

Molecule `CCCC1=C(c2cccc([N+](=O)[O-])c2)C(=NO)CC1` registered a melting point of 128 to 129 °C.

In the case of `CN1C2CCC1[C@H](CO)[C@@H](c1cccs1)C2` (stereo partly drawn), the melting point was 154 to 158 °C.

In the case of `CC(=O)Nc1cc(Cl)c([N+](=O)[O-])cc1CCOC(C)=O`, the melting point was found to be 153 °C.

`CC(C)Nc1c(-c2c(F)cc(F)cc2F)c(Cl)nc2ncccc12` displayed a melting point of 193 °C.

`CCCCCCCCS(=O)(=O)NC(Cc1cc2c(N)nccc2s1)C(=O)N1CCC(C)CC1` (stereo not drawn): the melting point fell in the range of 101 to 112 °C.

As to `CC=CC=CC(=O)N1CC1C#N` (stereo not drawn), the melting point is 56 to 58 °C.

On to `CCCOc1ccccc1C1=NC(=O)C2=NC(c3ccccc3)=NC2=N1`, for which the melting point was 259 to 260 °C.

Turning to `CC12CC(CCCCCCl)C3c4ccc(O)cc4CCC3C1CCC2O` (stereo not drawn), the melting point is 159 °C.

`CN(C)c1ccc(-c2cnn(-c3cccc(C(=O)O)c3)c2)cc1`: the melting point was 224 to 225 °C.

In turn, `O=C(O)C1(c2ccccc2)CCN(Cc2ccccc2)CC1` gave a melting point of 286 °C.

`N#CC(NCCCO)c1ccc(F)cc1` (stereo not drawn) registered a melting point of 69 to 70 °C.

Consider `CNc1ccc2[nH]c3cc(-c4ccccc4Cl)c4c(c3c2c1)C(=O)NC4=O`, for which the melting point lay in the range of 182 to 184 °C.

Molecule `OC(=S)CCC1CCN(Cc2ccc3c(c2)Nc2nccnc2S3)CC1` had a melting point of 110 to 113 °C.

The molecule `CCc1nc2c(cnn2CC)c(NC2CCOCC2)c1CNC(=O)c1cccc(C(=O)NCc2ccc(F)c(-c3cccc(CN4CC5CC4CN5)c3)c2)c1` (stereo not drawn) yielded a melting point of 129 to 133 °C.

`COc1cc2c(cc1OC)CN(CCc1ccc([N+](=O)[O-])cc1)CC2` had a melting point of 118 to 119 °C.

Turning to `N#CC(c1ccccc1)c1nc(-c2ccncc2)cs1` (stereo not drawn), the melting point is 110 to 111 °C.

The molecule `O=C(O)c1ccn(-c2ccc(Cl)cc2)c1` yielded a melting point of 222 to 224 °C.

As for `CCN1CCC(c2c[nH]c3ccc(NC(=O)c4ccco4)cc23)CC1`, the melting point was in the range of 178 to 179 °C.

Molecule `CC(C)c1nn2ccccc2c1Br` displayed a melting point of 51 to 52 °C.

The molecule `CCOC(=O)c1c(CC(=O)O)n(-c2ccc(OC(C)C)cc2)c2ccc(Oc3ccc(C(F)(F)F)cc3)cc12` showed a melting point of 158 °C.

`CCCCn1c(=O)[nH]c2c(Cl)cc(OC)c(OC)c2c1=N` came in with a melting point of 155 to 157 °C.

Regarding `COc1ccc2c(c1)C(c1ccc(N)cc1)=Nn1c(nc(C)c1C)C2`, the melting point is 280 °C.

With `FC(F)(F)Oc1ccc(Nc2cc(-c3ccccc3)ncn2)cc1`, the melting point was 245 to 247 °C.

Consider `CC(=O)Nc1cccc(C#Cc2ccc([C@@H]3CC[C@@H]4CCCCN43)cc2)c1` (relative stereo), for which the melting point was 161 to 163 °C.

Turning to `C#CCC(c1ccc(Cl)cc1Cl)C(O)(C(C)=O)c1cccnc1` (stereo not drawn), the melting point is 132 °C.

`CN(C)S(=O)(=O)c1ccc(C#N)c(C(F)(F)F)c1`: the melting point was 133 to 136 °C.

As for `O=C(Nc1cc(C(F)(F)F)cc(C(F)(F)F)c1)c1cc(Cl)cnc1O`, the melting point is > 270 °C.

Regarding `CCOc1ccccc1-c1ccc2c(c1)C=C(C(=O)Nc1ccc(CN(C)C3CCOCC3)cc1)CCS2(=O)=O`, the melting point is 171 to 173 °C.

`CC(Br)CN(CC(C)Br)c1c(C(=O)NCCOP(=O)(O)O)cc([N+](=O)[O-])cc1[N+](=O)[O-]` (stereo not drawn) had a melting point of 157 to 161 °C.

Consider `CCCN1CCC(c2ccc(C(=O)NC3(C(=O)NCC#N)CCCCC3)cc2)CC1`, for which the melting point is 198 to 200 °C.

`Cn1ncc(C#N)c1-c1ccc([N+](=O)[O-])o1` had a melting point of 150 to 152 °C.

The molecule `Cc1cc(C2=NOC(c3cc(Cl)cc(Cl)c3)(C(F)(F)F)C2)ccc1C(=O)Nc1ncc(C#N)cn1` (stereo not drawn) returned a melting point of 118 to 121 °C.

Take `Cc1c(C)c2c(c(C)c1NCc1ccc3c(c1)OCO3)C(c1ccc(C(C)C)cc1)C(C)(C)O2` (stereo not drawn): the melting point lay in the range of 100 to 102 °C.

On to `C=C(C)CNC(=NC#N)Nc1cccnc1`, for which the melting point was 140 to 141 °C.

In turn, `COc1ccc(C(=O)c2[nH]c(=S)[nH]c2C)cc1` had a melting point of 200 °C.

Molecule `C[C@H](O)Cn1ccc2cc(F)c(Cl)cc21` displayed a melting point of 99 to 101 °C.

In the case of `COC12C=CC(CC1)C1=C2C(=O)c2c(O)ccc(O)c2C1=O` (stereo not drawn), the melting point was in the range of 239 to 241 °C.

Take `CC(NS(=O)(=O)c1ccc([N+](=O)[O-])cc1[N+](=O)[O-])c1ccccc1` (stereo not drawn): the melting point lay in the range of 160 to 161 °C.

On to `CCCOc1cc(CCCOc2c(CC(=O)O)cccc2OC)n(Cc2ccccc2OC)n1`, for which the melting point is 79 to 82 °C.

In turn, `O=C(NO)C1(NS(=O)(=O)c2ccc(Oc3ccc(F)cc3)cc2)CCOCC1` came in with a melting point of 176 to 177 °C.
